Series [1] relates to SeAx cells. Put plainly: Propidium iodide (PI) uptake, flow cytometry, SeAx cells. The class given is cell-based. The note with it: 4 μM. Here is the method:
(A) SeAx or HaCat cells cultured in the absence of 10% FBS were left untreated or treated with 4 μM or 10 μM, respectively, of the Antp-AAC-11-LZ (363-399) peptide for the indicated durations. Cells were then analyzed by flow cytometry for PI staining. The results represent the mean number of PI-positive cells±S.D. from at least three independent experiments. (B) A549 and HaCat cells were plated at a densities of 4.5×10^3 in 96 well plates (100 μL total volume per well) and allowed to attach overnight in a 37° C. incubator (5% CO2). […] Lactate dehydrogenase (LDH) activity released in the culture medium was then assessed and data expressed as a percentage of the maximal level (Max) of LDH activity determined after total cell lysis±S.D. from at least three independent experiments.
(A) SeAx cultured in the absence of 10% FBS were left untreated or treated with 4 μM of the indicated Antp-AAC-11-LZ peptides for various times. Cells were then analyzed by flow cytometry for PI staining. […] Lactate dehydrogenase (LDH) activity released in the culture medium was then assessed and data expressed as a percentage of the maximal level (Max) of LDH activity determined after total cell lysis±S.D.
Cell death was evaluated upon staining with propidium iodide and flow cytometry analysis. […]

Series [2] has as its system HaCat cells. In words: Propidium iodide (PI) uptake, flow cytometry, HaCat cells. In kind it is cell-based. The note with it: 10 μM, absence of 10% FBS, FIG. 4A. On the procedure:
FIG. 4: Antp-AAC-11-LZ (363-399) peptide induced necrotic cell death under low serum conditions. (A) SeAx or HaCat cells cultured in the absence of 10% FBS were left untreated or treated with 4 μM or 10 μM, respectively, of the Antp-AAC-11-LZ (363-399) peptide for the indicated durations. Cells were then analyzed by flow cytometry for PI staining. The results represent the mean number of PI-positive cells±S.D. from at least three independent experiments. (B) A549 and HaCat cells were plated at a densities of 4.5×10^3 in 96 well plates (100 μL total volume per well) and allowed to attach overnight in a 37° C. incubator (5% CO2). Media was removed from cells and replaced with media containing 10 μM Antp-AAC-11-LZ (363-399) peptide (100 μL total volume per well) peptide and the plates were incubated for the indicated durations. Lactate dehydrogenase (LDH) activity released in the culture medium was then assessed and data expressed as a percentage of the maximal level (Max) of LDH activity determined after total cell lysis±S.D. from at least three independent experiments.
Cell death was evaluated upon staining with propidium iodide and flow cytometry analysis.
We therefore evaluated necrotic cell death of SeAx cells treated with the Antp-AAC-11-LZ (363-399) peptide by PI uptake assay following different time exposures. […]

For series [3], the system named is A549 cells. Put plainly: Lactate dehydrogenase (LDH) release, A549 cells. The class given is cell-based, human. As to conditions: 10 μM. On the procedure:
(A) SeAx or HaCat cells cultured in the absence of 10% FBS were left untreated or treated with 4 μM or 10 μM, respectively, of the Antp-AAC-11-LZ (363-399) peptide for the indicated durations. Cells were then analyzed by flow cytometry for PI staining. The results represent the mean number of PI-positive cells±S.D. from at least three independent experiments. (B) A549 and HaCat cells were plated at a densities of 4.5×10^3 in 96 well plates (100 μL total volume per well) and allowed to attach overnight in a 37° C. incubator (5% CO2). Media was removed from cells and replaced with media containing 10 μM Antp-AAC-11-LZ (363-399) peptide (100 μL total volume per well) peptide and the plates were incubated for the indicated durations. Lactate dehydrogenase (LDH) activity released in the culture medium was then assessed and data expressed as a percentage of the maximal level (Max) of LDH activity determined after total cell lysis±S.D. from at least three independent experiments.
(A) SeAx cultured in the absence of 10% FBS were left untreated or treated with 4 μM of the indicated Antp-AAC-11-LZ peptides for various times. Cells were then analyzed by flow cytometry for PI staining. The results represent the mean number of PI-positive cells±S.D. (B) A549 cells were plated at a densities of 4.5×10^3 in 96 well plates (100 μL total volume per well) and allowed to attach overnight in a 37° C. incubator (5% CO2). Media was removed from cells and replaced with media containing the indicated Antp-AAC-11-LZ peptides at 10 μM (100 μL total volume per well) peptide and the plates were incubated for the indicated durations. Lactate dehydrogenase (LDH) activity released in the culture medium was then assessed and data expressed as a percentage of the maximal level (Max) of LDH activity determined after total cell lysis±S.D.

Consider “Ac-RQIKIWFKKQNRRMKWKKAKLNAEKLKDFKIRLQYFARGLQVYIRQLRLALQGKT-NH2 [Antp-AAC-11-LZ (363-399)]”, for which the PI positive cells in series [1] (5 minutes, absence of 10% FBS) is reported as 90%. Besides, the “PI positive cells, course after 5 minutes” value in series [1] (up to 60 minutes) was “remained unchanged”. For the same substance, the “loss of cell membrane integrity (PI uptake) in nonmalignant cells” value in series [2] is recorded as “much decreased loss of cell membrane integrity”. For the same substance, the LDH release in series [3] (5 minutes, relative to maximal LDH release (0.8% Triton X-100)) is recorded as about 40%; in series [3] (1 hour, compared to maximum LDH release (0.8% Triton X-100)), 80%. Moreover, the “LDH release into cell supernatants, in words” value in series [3] (time course) was “drastic increase”.
